Literature values in patent US9927424B2, “Assays for identifying compounds that modulate bitter taste” (Chromocell Corporation, priority 2013, dated 2018).

Key:
Details in all cases: PCT/US12/61400; cited from earlier work
TAS2R4 = target: T1, TAS2R4 (Homo sapiens, UniProt Q9NYW5)
T1 construct: expressed in transfected cells
T1 sequence (Q9NYW5 1-299): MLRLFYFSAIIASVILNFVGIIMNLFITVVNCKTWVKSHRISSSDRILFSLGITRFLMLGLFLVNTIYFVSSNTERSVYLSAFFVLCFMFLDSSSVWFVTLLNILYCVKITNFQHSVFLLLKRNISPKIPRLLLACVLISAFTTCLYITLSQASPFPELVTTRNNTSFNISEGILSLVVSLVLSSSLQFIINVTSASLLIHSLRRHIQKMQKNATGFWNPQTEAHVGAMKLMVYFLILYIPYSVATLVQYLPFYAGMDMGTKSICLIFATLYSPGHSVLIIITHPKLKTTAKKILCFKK

TAS2R13 = target: T2, TAS2R13 (Homo sapiens, UniProt Q9NYV9)
T2 construct: expressed in transfected cells
T2 sequence (Q9NYV9 1-303): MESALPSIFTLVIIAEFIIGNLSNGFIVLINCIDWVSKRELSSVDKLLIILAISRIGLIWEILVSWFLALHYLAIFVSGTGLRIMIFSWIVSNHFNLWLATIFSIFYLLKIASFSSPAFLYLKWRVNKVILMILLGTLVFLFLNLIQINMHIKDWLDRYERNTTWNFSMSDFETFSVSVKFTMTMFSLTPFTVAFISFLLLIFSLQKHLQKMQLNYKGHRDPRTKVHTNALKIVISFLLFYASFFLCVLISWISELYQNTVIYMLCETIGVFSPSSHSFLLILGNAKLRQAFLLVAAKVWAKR

TAS2R14 = target: T3, TAS2R14 (Homo sapiens, UniProt Q9NYV8)
T3 construct: expressed in transfected cells
T3 sequence (Q9NYV8 1-317): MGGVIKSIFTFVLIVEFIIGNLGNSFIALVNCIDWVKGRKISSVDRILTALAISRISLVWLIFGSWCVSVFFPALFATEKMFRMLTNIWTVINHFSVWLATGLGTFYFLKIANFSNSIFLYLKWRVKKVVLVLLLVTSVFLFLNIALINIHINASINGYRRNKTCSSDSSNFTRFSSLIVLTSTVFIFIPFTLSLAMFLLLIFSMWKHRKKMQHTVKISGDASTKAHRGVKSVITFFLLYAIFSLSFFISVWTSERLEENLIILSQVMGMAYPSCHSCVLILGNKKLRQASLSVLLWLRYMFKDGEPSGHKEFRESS

TAS2R9 = target: T4, TAS2R9 (Homo sapiens, UniProt Q9NYW1)
T4 construct: expressed in transfected cells
T4 sequence (Q9NYW1 1-312): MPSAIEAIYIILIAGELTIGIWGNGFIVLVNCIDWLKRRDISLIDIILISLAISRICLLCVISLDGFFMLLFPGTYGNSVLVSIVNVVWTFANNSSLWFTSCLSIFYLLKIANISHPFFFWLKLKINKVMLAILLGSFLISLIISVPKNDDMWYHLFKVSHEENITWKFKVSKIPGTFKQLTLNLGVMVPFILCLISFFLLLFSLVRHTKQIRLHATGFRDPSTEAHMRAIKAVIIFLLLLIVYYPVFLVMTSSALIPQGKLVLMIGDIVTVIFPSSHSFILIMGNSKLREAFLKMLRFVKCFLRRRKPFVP

[Cl-].[K+] [KCl]
specifically respond: TAS2R4 response to stimulation, previously shown (TAS2R4) | TAS2R13 response to stimulation, previously shown (TAS2R13) | TAS2R14 response to stimulation, previously shown (TAS2R14) | TAS2R9 response to stimulation, previously shown (TAS2R9)
